# Experiments:
# Human Factor XIIa = biological target: T1, Human Factor XIIa (Homo sapiens, UniProt P00748); assay: Determination of Factor XIIa inhibitory activity in vitro (fluorogenic substrate H-DPro-Phe-Arg-AFC); format: biochemical; conditions: Human Factor XIIa (Enzyme Research Laboratories), 25° C., read-out: Human FXIIa IC50
# T1 construct: purchased Enzyme Research Laboratories
# T1 sequence (P00748 373-615 limits assumed): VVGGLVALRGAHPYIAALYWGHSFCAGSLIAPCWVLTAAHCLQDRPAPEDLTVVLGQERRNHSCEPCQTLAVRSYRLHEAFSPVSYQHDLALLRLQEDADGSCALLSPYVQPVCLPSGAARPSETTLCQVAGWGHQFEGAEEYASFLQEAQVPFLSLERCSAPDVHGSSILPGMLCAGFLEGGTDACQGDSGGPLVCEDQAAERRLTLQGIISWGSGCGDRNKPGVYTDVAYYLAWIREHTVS
# T1 sequence (P00748 20-372 partner limits assumed): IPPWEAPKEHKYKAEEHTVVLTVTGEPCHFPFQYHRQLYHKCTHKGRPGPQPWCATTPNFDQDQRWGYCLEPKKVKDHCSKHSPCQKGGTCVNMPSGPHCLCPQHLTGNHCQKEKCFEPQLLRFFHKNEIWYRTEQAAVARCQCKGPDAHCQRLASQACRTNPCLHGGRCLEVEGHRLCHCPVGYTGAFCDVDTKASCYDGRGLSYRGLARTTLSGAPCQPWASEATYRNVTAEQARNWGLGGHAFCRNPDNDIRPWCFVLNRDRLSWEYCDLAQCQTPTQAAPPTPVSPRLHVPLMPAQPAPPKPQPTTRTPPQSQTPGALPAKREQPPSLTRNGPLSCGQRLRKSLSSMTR
# Method in brief: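 In vitro inhibition of human Factor XIIa (sourced from Enzyme Research Laboratories) was measured by incubating the enzyme at 25° C. with the fluorogenic substrate H-DPro-Phe-Arg-AFC across a range of test compound concentrations. The initial reaction rate, taken as residual enzyme activity, was followed by the […], and IC50 values were calculated.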
# Human FXIa = biological target: T2, Human FXIa (Homo sapiens, UniProt P03951); assay: Determination of FXIa inhibitory activity in vitro (fluorogenic substrate Z-Gly-Pro-Arg-AFC); format: biochemical; conditions: Selectivity, Human FXIa (Enzyme Research Laboratories), 25° C.
# T2 construct: purchased Enzyme Research Laboratories
# T2 sequence (P03951 388-625 limits assumed): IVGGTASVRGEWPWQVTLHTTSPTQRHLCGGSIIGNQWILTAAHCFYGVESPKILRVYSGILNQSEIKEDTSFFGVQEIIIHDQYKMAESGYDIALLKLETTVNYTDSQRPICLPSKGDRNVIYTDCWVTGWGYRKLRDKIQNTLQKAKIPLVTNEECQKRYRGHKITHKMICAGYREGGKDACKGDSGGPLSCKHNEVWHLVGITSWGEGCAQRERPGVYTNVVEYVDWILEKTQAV
# T2 sequence (P03951 19-387 partner limits assumed): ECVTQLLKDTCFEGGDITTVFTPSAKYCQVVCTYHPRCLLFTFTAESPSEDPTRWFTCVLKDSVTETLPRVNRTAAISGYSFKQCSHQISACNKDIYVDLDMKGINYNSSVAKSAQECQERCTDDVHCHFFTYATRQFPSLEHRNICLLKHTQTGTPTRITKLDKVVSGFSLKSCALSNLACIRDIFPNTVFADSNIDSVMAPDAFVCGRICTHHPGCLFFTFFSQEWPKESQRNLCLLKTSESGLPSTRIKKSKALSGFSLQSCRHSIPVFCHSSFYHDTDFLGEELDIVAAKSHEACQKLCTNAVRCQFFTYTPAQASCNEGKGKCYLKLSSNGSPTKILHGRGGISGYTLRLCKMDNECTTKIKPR
SMILES,IC50 (Human Factor XIIa),IC50 (Human FXIa)
Nc1nccc2cc(CNC(=O)c3cnc(NC4CCN(C5CC5)CC4)c(Cl)c3)ccc12 [Example 11.42],10 to 40 µM,> 40 µM
"Nc1nccc2cc(CNC(=O)c3cnc(OCCN4CCCCC4)c(Cl)c3)ccc12 [Example 13.26, N-((1-aminoisoquinolin-6-yl)methyl)-5-chloro-6-(2-(piperidin-1-yl)ethoxy)nicotinamide]",3 to 10 µM,> 40 µM
Nc1nccc2cc(CNC(=O)c3cnc(OCCCN4CCCCC4)c(Cl)c3)ccc12 [Example 13.27],3 to 10 µM,> 40 µM
Nc1nccc2cc(CNC(=O)c3cc(Cl)cnc3N3CCN(c4ncccn4)CC3)ccc12 [Example 16.04],10 to 40 µM,> 40 µM
CC(=O)NCCN1CCN(c2ncc(Cl)cc2C(=O)NCc2ccc3c(N)nccc3c2)CC1 [Example 16.05],3 to 10 µM,> 40 µM
"Nc1nccc2cc(CNC(=O)c3ccc(CN4CCN(c5ccncc5)CC4)c(Cl)c3)ccc12 [Example 29.07, N-((1-aminoisoquinolin-6-yl)methyl)-3-chloro-4-((4-(pyridin-4-yl)piperazin-1-yl)methyl)benzamide]",10 to 40 µM,21 µM
"Nc1nccc2cc(CNC(=O)c3cnc(CN4CCN(c5ccncc5)CC4)c(Cl)c3)ccc12 [Example 29.08, N-[(1-amino-6-isoquinolyl)methyl]-5-chloro-6-[[4-(4-pyridyl)piperazin-1-yl]methyl]pyridine-3-carboxamide]",10 to 40 µM,> 40 µM
"CN1CCC(CNc2ncc(Cl)cc2C(=O)NCc2c(Cl)cccc2-n2cnnn2)CC1 [Example 33.01, 5-Chloro-N-{[2-chloro-6-(1,2,3,4-tetrazol-1-yl)phenyl]methyl}-2-{[(1-methylpiperidin-4-yl)methyl]amino}pyridine-3-carboxamide]",3 to 10 µM,> 40 µM
CN1CCC(CNc2nccnc2C(=O)Nc2ccc3c(c2)C(=O)NC3)CC1 [Example 33.02],10 to 40 µM,20 µM
CN1CCC(CNc2nccnc2C(=O)Nc2ccc3nc[nH]c(=O)c3c2)CC1 [Example 33.03],10 to 40 µM,20 µM
CN1CCC(CNc2nccnc2C(=O)Nc2ccc3ccnc(N)c3c2)CC1 [Example 33.04],10 to 40 µM,> 40 µM
CCOC(=O)c1cn(-c2ccc(OC)c(F)c2CNC(=O)c2nccnc2NCC2CCN(C)CC2)nn1 [Example 33.05],3 to 10 µM,33.5 µM
CN1CCC(CNc2nccnc2C(=O)NCCc2cnc[nH]2)CC1 [Example 33.06],10 to 40 µM,20 µM
CN1CCC(CNc2nccnc2C(=O)Nc2ccc3c(N)nccc3c2)CC1 [Example 33.07],10 to 40 µM,> 40 µM
CN1CCC(CNc2nccnc2C(=O)Nc2ccc3nccnc3c2)CC1 [Example 33.08],10 to 40 µM,> 40 µM
"COc1ccc(-n2cc(C(=O)O)nn2)c(CNC(=O)c2nccnc2NCC2CCN(C)CC2)c1F [Example 33.09, 1-(3-Fluoro-4-methoxy-2-{[(3-{[(1-methylpiperidin-4-yl)methyl]amino}pyrazin-2-yl)formamido]methyl}phenyl)-1,2,3-triazole-4-carboxylic acid]",10 to 40 µM,33.5 µM
Cc1nc2ccc(NC(=O)c3nccnc3NCC3CCN(C)CC3)cc2o1 [Example 33.10],10 to 40 µM,20 µM
CN1CCC(CNc2nccnc2C(=O)Nc2ccc(-c3n[nH]c(=O)[nH]3)cc2)CC1 [Example 33.11],10 to 40 µM,> 40 µM
"CN1CCC(CNc2nccnc2C(=O)Nc2cccc3c(N)nccc23)CC1 [Example 33.12, N-(1-aminoisoquinolin-5-yl)-3-(((1-methylpiperidin-4-yl)methyl)amino)pyrazine-2-carboxamide]",1 to 3 µM,> 40 µM
CN1CCC(CNc2nccnc2C(=O)N[C@@H]2CCc3c2ccnc3N)CC1 [Example 33.13],3 to 10 µM,39.8 µM
CN1CCC(CNc2nccnc2C(=O)Nc2cnc3[nH]cc(Cl)c3c2)CC1 [Example 33.14],10 to 40 µM,> 40 µM
CN1CCC(CNc2nccnc2C(=O)Nc2cccc3[nH]cc(Cl)c23)CC1 [Example 33.15],10 to 40 µM,> 40 µM
CN1CCC(CNc2nccnc2C(=O)NCc2ccc3ccnc(N)c3c2)CC1 [Example 33.16],3 to 10 µM,> 40 µM
COc1ccc(-n2cncn2)c(CNC(=O)c2nccnc2NCC2CCN(C)CC2)c1F [Example 33.17],10 to 40 µM,> 40 µM
"Cc1c(CNC(=O)c2nccnc2NCC2CCN(C)CC2)ccc2c(N)nccc12 [Example 33.18, N-((1-amino-5-methylisoquinolin-6-yl)methyl)-3-(((1-methylpiperidin-4-yl)methyl)amino)pyrazine-2-carboxamide]",0.3 to 1 µM,> 40 µM
CN1CCC(CNc2nccnc2C(=O)NCc2cc(F)c3c(N)nccc3c2)CC1 [Example 33.19],10 to 40 µM,> 40 µM
COc1cc2c(N)nccc2cc1CNC(=O)c1nccnc1NCC1CCN(C)CC1 [Example 33.20],1 to 3 µM,13.5 µM
CN1CCC(CNc2nccnc2C(=O)NCc2cc3c(N)nccc3s2)CC1 [Example 33.21],3 to 10 µM,> 40 µM
